Key:
[1] = biological target: recombinant human WT SOD1 (Homo sapiens, UniProt P00441); type: biochemical
SOD1 = SOD1 (Homo sapiens, UniProt P00441); type: biochemical
DJ-1 [2] = biological target: T1, DJ-1 (Homo sapiens, UniProt Q99497); type: biochemical
WT DJ-1 = WT DJ-1 (Homo sapiens, UniProt Q99497); type: biochemical
DJ-1 [3] = biological target: T1, DJ-1; type: binding
[4] = in vivo; cited from earlier work

recombinant human WT SOD1, sequence (P00441 whole entry): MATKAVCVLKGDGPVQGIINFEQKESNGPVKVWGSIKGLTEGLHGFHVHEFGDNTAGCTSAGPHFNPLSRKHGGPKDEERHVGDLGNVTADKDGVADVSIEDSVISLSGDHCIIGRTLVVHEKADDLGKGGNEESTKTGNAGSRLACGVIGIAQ
WT DJ-1, sequence (Q99497 whole entry): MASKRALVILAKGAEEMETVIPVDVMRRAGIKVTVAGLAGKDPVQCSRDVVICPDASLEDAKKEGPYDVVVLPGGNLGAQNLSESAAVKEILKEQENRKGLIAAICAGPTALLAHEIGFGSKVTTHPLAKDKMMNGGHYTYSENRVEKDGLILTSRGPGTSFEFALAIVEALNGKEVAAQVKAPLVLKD
T1 sequence (Q99497 whole entry): as above
SOD1, sequence (P00441 whole entry): as the sequence (P00441 whole entry) above

Structure (SMILES) | covalent dimerization of SOD1 [1] | covalent dimerization of DJ-1 (WT DJ-1) | denaturation temperature of DJ-1 (DJ-1 [3]) | other results
OCC1(CO)CSSC1 [1,2-dithiolane-4,4-dimethanol] | capable of covalently dimerizing SOD1 |  |  | 
O=C1C=CC(=O)N1CCSSCCN1C(=O)C=CC1=O [DTME, dithio-bismaleimidocthane] |  |  |  | cross-linking of SOD1 monomers (SOD1): able to cross-link SOD1 monomers
[O-][S+]1CCCCS1 (stereo not shown) [NSC56224, 1-oxo-1,2-dithiane] | capable of covalently dimerizing SOD1 | covalent dimerizer of DJ-1 | increase the measured denaturation temperature of DJ-1 | site of covalent linkage in DJ-1 dimer (DJ-1 [2]): covalently linked DJ-1 dimers at Cys53; extent of cross-linking of SOD1 monomers [1]: able to cross-link the majority of SOD1 monomers in the sample
NC(=O)NN=C1CSSC1 [NSC72268] |  | specific covalent dimerizer of DJ-1 | increase the measured denaturation temperature of DJ-1 | 
CC(C)C[C@H](NC(=O)[C@H](Cc1ccccc1)NC(=O)c1cnccn1)B(O)O [bortezomib] |  |  |  | LD100 [4]: < 250 µg/kg
